According to patent US20250368627A1, “PYRAZOLESULFONAMIDES AS ANTITUMOR AGENTS” (Peloton Therapeutics, Inc., a fully owned subsidiary of …, priority 2019, published 2025):

Assays:
[1] = tested on: HCT116 human colorectal carcinoma cells; assay: CellTiter-Glo Luminescent Cell Viability Assay; format: cell-based; conditions: HCT-116, 72 h, 3 days
In short: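 CellTiter-Glo luminescence gave viability after 3 days of compound exposure in HCT116 cells grown in DMEM/10% FBS. Final concentrations ran from 5 to 0.0002 […] in 1:3 steps, each in triplicate, with IC50 derived from the curves.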

[2] = target: T1, DDB1DB/DCAF15 and RBM39 R1R2 complex (Homo sapiens, UniProt Q14498+Q66K64); assay: DCAF15 RBM39 Complex Formation Assay (FRET); format: binding; conditions: FRET ratio Em 665/Em 615, incubated overnight at 4° C.
T1 construct: Amino acids 150 to 331 of RBM39 were cloned into pGEX4T3; GST (from vector pGEX4T3); TEV cleavage site (N); made in house; host or cells: DDB1DB/His-DCAF15: baculovirus/Sf9 co-expression; RBM39 R1R2: E. coli (pGEX4T3)
In short: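 Ternary complex formation read by TR-FRET (Em 665/615, excitation 340 nm) after overnight incubation at 4° C of 20 nM baculovirus DDB1DB/His-DCAF15 and 50 nM E. coli RBM39 RRM1-RRM2 FLAG fragment with 14-point, 3-fold compound dilutions from 1 μM; EC50 from 4-parameter fit.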

T1 sequence (Q66K64 whole entry, the tested form may be a part): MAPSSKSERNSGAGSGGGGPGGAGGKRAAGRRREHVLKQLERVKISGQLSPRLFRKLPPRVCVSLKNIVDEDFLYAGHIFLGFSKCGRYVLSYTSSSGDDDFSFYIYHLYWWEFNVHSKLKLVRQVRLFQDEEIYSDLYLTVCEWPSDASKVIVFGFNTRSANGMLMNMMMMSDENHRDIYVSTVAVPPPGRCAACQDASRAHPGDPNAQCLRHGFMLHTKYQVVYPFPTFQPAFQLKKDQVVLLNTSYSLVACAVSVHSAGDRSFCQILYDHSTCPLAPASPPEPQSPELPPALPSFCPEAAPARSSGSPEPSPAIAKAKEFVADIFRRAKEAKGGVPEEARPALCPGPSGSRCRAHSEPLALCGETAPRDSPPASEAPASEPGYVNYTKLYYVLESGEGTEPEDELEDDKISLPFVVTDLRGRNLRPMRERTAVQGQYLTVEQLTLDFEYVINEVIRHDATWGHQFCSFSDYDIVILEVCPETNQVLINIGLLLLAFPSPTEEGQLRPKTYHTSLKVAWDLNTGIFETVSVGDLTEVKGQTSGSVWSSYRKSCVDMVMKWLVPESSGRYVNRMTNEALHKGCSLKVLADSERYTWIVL
T1 sequence (Q14498 150-331): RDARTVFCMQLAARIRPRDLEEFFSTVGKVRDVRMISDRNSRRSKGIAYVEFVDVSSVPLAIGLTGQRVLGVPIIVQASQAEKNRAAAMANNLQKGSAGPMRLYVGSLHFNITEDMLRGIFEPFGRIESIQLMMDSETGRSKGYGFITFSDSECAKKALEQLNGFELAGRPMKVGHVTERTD
T1 sequence (Q16531 with tags, fused parts or gaps DEL396-708 partner): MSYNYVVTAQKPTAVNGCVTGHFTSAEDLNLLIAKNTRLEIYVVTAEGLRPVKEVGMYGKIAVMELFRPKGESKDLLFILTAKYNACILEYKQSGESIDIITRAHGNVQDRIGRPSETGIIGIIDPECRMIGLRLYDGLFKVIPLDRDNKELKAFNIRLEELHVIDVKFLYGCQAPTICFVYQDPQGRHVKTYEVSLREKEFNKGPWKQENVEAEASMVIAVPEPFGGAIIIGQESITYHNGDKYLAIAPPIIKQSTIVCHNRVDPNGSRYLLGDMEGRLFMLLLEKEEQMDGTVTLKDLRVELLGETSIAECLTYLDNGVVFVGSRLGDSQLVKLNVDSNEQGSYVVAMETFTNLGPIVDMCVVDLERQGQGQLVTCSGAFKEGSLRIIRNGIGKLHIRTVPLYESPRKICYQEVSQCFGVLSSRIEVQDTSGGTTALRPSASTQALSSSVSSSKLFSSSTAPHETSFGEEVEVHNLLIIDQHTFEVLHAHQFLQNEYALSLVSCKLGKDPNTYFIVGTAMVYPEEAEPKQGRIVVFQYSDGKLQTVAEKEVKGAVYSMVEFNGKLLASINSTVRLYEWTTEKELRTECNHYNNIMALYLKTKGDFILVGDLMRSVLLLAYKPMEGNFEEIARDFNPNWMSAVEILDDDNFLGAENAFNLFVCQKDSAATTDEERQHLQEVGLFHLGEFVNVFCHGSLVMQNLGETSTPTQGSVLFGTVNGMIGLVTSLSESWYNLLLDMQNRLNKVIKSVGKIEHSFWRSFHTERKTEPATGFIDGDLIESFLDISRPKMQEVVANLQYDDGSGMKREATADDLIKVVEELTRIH

Row | EC50 [1] [nM] | IC50 [2] [nM] | Compound
1 | > 1000 | < 250 | Cc1ccc(NS(=O)(=O)c2cnn(C3CCN(CC(F)(F)F)CC3)c2)c2[nH]cc(C#N)c12 [Compound 87, N-(3-cyano-4-methyl-1H-indol-7-yl)-1-[1-(2,2,2-trifluoroethyl)-4-piperidyl]pyrazole-4-sulfonamide]
2 | 250 to 1000 | < 250 | Cc1ccc(NS(=O)(=O)c2cnn(C3CCCC3)c2)c2[nH]cc(C#N)c12 [Compound 88, N-(3-cyano-4-methyl-1H-indol-7-yl)-1-cyclopentyl-pyrazole-4-sulfonamide]
3 | 250 to 1000 | < 250 | Cc1ccc(NS(=O)(=O)c2cnn(Cc3ccccc3)c2)c2[nH]cc(C#N)c12 [Compound 89, 1-benzyl-N-(3-cyano-4-methyl-1H-indol-7-yl)pyrazole-4-sulfonamide]
4 | < 250 | < 250 | CCCn1cc(S(=O)(=O)Nc2ccc(C)c3c(C#N)c[nH]c23)cn1 [Compound 90, N-(3-cyano-4-methyl-1H-indol-7-yl)-1-propyl-pyrazole-4-sulfonamide]
5 | 250 to 1000 | < 250 | N#Cc1c[nH]c2c(NS(=O)(=O)c3cnn(CC(F)F)c3)ccc(Cl)c12 [Compound 91, N-(4-chloro-3-cyano-1H-indol-7-yl)-1-(2,2-difluoroethyl)pyrazole-4-sulfonamide]
6 | 250 to 1000 | < 250 | N#Cc1c[nH]c2c(NS(=O)(=O)c3cnn(CC(F)F)c3)ccc(F)c12 [Compound 92, N-(3-cyano-4-fluoro-1H-indol-7-yl)-1-(2,2-difluoroethyl)pyrazole-4-sulfonamide]
7 | 250 to 1000 | < 250 | Cc1ccc(NS(=O)(=O)c2cnn(S(C)(=O)=O)c2)c2[nH]cc(C#N)c12 [Compound 93, N-(3-cyano-4-methyl-1H-indol-7-yl)-1-methylsulfonyl-pyrazole-4-sulfonamide]
8 | < 250 | < 250 | Cc1ccc(NS(=O)(=O)c2cnn(C(C)(C)C)c2)c2[nH]cc(C#N)c12 [Compound 94, 1-tert-butyl-N-(3-cyano-4-methyl-1H-indol-7-yl)pyrazole-4-sulfonamide]
9 | 250 to 1000 | < 250 | CC(C)(C)n1cc(S(=O)(=O)Nc2cccc3c(Cl)c[nH]c23)cn1 [Compound 95, 1-tert-butyl-N-(3-chloro-1H-indol-7-yl)pyrazole-4-sulfonamide]
10 | > 1000 | 250 to 1000 | Cn1cc(S(=O)(=O)Nc2ccc(C(F)(F)F)c3cc[nH]c23)cn1 [Compound 96, 1-methyl-N-[4-(trifluoromethyl)-1H-indol-7-yl]pyrazole-4-sulfonamide]
11 | > 1000 | < 250 | Cn1cc(S(=O)(=O)Nc2ccc(C(F)(F)F)c3c(Cl)c[nH]c23)cn1 [Compound 97, N-[3-chloro-4-(trifluoromethyl)-1H-indol-7-yl]-1-methyl-pyrazole-4-sulfonamide]
12 | < 250 | < 250 | Cc1ccc(NS(=O)(=O)c2cnn(CC(F)F)c2)c2[nH]cc(Cl)c12 [Compound 98, N-(3-chloro-4-methyl-1H-indol-7-yl)-1-(2,2-difluoroethyl)pyrazole-4-sulfonamide]
13 | 250 to 1000 | < 250 | Cc1ccc(NS(=O)(=O)c2cnn(S(=O)(=O)CF)c2)c2[nH]cc(C#N)c12 [Compound 100, N-(3-cyano-4-methyl-1H-indol-7-yl)-1-(fluoromethylsulfonyl)pyrazole-4-sulfonamide]
14 | 250 to 1000 | < 250 | Cc1ccc(NS(=O)(=O)c2cnn(S(=O)(=O)c3ccccc3)c2)c2[nH]cc(C#N)c12 [Compound 101, 1-(benzenesulfonyl)-N-(3-cyano-4-methyl-1H-indol-7-yl)pyrazole-4-sulfonamide]
15 | < 250 | < 250 | CCn1ncc(S(=O)(=O)Nc2ccc(C)c3c(C#N)c[nH]c23)c1F [Compound 102, N-(3-Cyano-4-methyl-1H-indol-7-yl)-1-ethyl-5-fluoro-pyrazole-4-sulfonamide]
16 | > 1000 | < 250 | O=S(=O)(Nc1ccc(C(F)(F)F)c2c(Cl)c[nH]c12)c1cnn(CC(F)F)c1 [Compound 103, N-[3-chloro-4-(trifluoromethyl)-1H-indol-7-yl]-1-(2,2-difluoroethyl)pyrazole-4-sulfonamide]
17 | 250 to 1000 | < 250 | N#Cc1c[nH]c2c(NS(=O)(=O)c3cnn(CC(F)F)c3)ccc(C(F)(F)F)c12 [Compound 104, N-[3-cyano-4-(trifluoromethyl)-1H-indol-7-yl]-1-(2,2-difluoroethyl)pyrazole-4-sulfonamide]
18 | 250 to 1000 | < 250 | Cn1cc(S(=O)(=O)Nc2ccc(C(F)(F)F)c3c(C#N)c[nH]c23)cn1 [Compound 105, N-[3-cyano-4-(trifluoromethyl)-1H-indol-7-yl]-1-methyl-pyrazole-4-sulfonamide]

Row | EC50 [1] [nM] | IC50 [2] [nM] | Compound
19 | 250 to 1000 | < 250 | Cc1ccc(NS(=O)(=O)c2cnn(CC3(CO)COC3)c2)c2[nH]cc(C#N)c12 [Compound 106, N-(3-cyano-4-methyl-1H-indol-7-yl)-1-[[3-(hydroxymethyl)oxetan-3-yl]methyl]pyrazole-4-sulfonamide]
20 | < 250 | < 250 | Cc1ccc(NS(=O)(=O)c2cnn(C3(C)COC3)c2)c2[nH]cc(C#N)c12 [Compound 107, N-(3-cyano-4-methyl-1H-indol-7-yl)-1-(3-methyloxetan-3-yl)pyrazole-4-sulfonamide]
21 | 250 to 1000 | < 250 | Cc1ccc(NS(=O)(=O)c2cnn(CC(C)(C)O)c2)c2[nH]cc(C#N)c12 [Compound 108, N-(3-Cyano-4-methyl-1H-indol-7-yl)-1-(2-hydroxy-2-methyl-propyl)pyrazole-4-sulfonamide]
22 | 250 to 1000 | < 250 | Cc1ccc(NS(=O)(=O)c2cnn(C3CC(F)(F)C3)c2)c2[nH]cc(C#N)c12 [Compound 109, N-(3-cyano-4-methyl-1H-indol-7-yl)-1-(3,3-difluorocyclobutyl)pyrazole-4-sulfonamide]
23 | 250 to 1000 | < 250 | [2H]C([2H])([2H])n1cc(S(=O)(=O)Nc2ccc(C)c3c(C#N)c[nH]c23)cn1 [Compound 110, N-(3-Cyano-4-methyl-1H-indol-7-yl)-1-(trideuteriomethyl)pyrazole-4-sulfonamide]
24 | 250 to 1000 | < 250 | Cc1ccc(NS(=O)(=O)c2cnn(C3CC(F)C3)c2)c2[nH]cc(C#N)c12 (stereo not shown) [Compound 111, N-(3-cyano-4-methyl-1H-indol-7-yl)-1-(3-fluorocyclobutyl)pyrazole-4-sulfonamide]
25 | 250 to 1000 | < 250 | Cc1ccc(NS(=O)(=O)c2cnn(C)c2F)c2[nH]cc(C#N)c12 [Compound 112, N-(3-cyano-4-methyl-1H-indol-7-yl)-5-fluoro-1-methyl-pyrazole-4-sulfonamide]
26 | < 250 | < 250 | Cc1ccc(NS(=O)(=O)c2cnn(C)c2C)c2[nH]cc(C#N)c12 [Compound 113, N-(3-cyano-4-methyl-1H-indol-7-yl)-1,5-dimethyl-pyrazole-4-sulfonamide]
27 | 250 to 1000 | < 250 | Cc1nn(C)cc1S(=O)(=O)Nc1ccc(C)c2c(C#N)c[nH]c12 [Compound 114, N-(3-cyano-4-methyl-1H-indol-7-yl)-1,3-dimethyl-pyrazole-4-sulfonamide]
28 | < 250 | < 250 | CC1(n2cc(S(=O)(=O)Nc3ccc(Cl)c4c(Cl)c[nH]c34)cn2)COC1 [Compound 115, N-(3,4-Dichloro-1H-indol-7-yl)-1-(3-methyloxetan-3-yl)pyrazole-4-sulfonamide]
29 | 250 to 1000 | < 250 | Cc1ccc(NS(=O)(=O)c2cnn(C3(CO)COC3)c2)c2[nH]cc(C#N)c12 [Compound 116, N-(3-cyano-4-methyl-1H-indol-7-yl)-1-[3-(hydroxymethyl)oxetan-3-yl]pyrazole-4-sulfonamide]
30 | < 250 | < 250 | Cc1ccc(NS(=O)(=O)c2cnn(C3(CF)COC3)c2)c2[nH]cc(C#N)c12 [Compound 117, N-(3-cyano-4-methyl-1H-indol-7-yl)-1-[3-(fluoromethyl)oxetan-3-yl]pyrazole-4-sulfonamide]
31 | < 250 | < 250 | CC1(n2cc(S(=O)(=O)Nc3ccc(Cl)c4c(C#N)c[nH]c34)cn2)COC1 [Compound 118, N-(4-chloro-3-cyano-1H-indol-7-yl)-1-(3-methyloxetan-3-yl)pyrazole-4-sulfonamide]
32 | < 250 | < 250 | N#Cc1c[nH]c2c(NS(=O)(=O)c3cnn(C(F)F)c3)ccc(Cl)c12 [Compound 119, N-(4-chloro-3-cyano-1H-indol-7-yl)-1-(difluoromethyl)pyrazole-4-sulfonamide]
33 | < 250 | < 250 | N#Cc1c[nH]c2c(NS(=O)(=O)c3cnn(CC(F)(F)F)c3)ccc(Cl)c12 [Compound 120, N-(4-chloro-3-cyano-1H-indol-7-yl)-1-(2,2,2-trifluoroethyl)pyrazole-4-sulfonamide]
34 | 250 to 1000 | < 250 | N#Cc1c[nH]c2c(NS(=O)(=O)c3cn[nH]c3)ccc(Cl)c12 [Compound 121, N-(4-chloro-3-cyano-1H-indol-7-yl)-1H-pyrazole-4-sulfonamide]
35 | < 250 | < 250 | Cn1ncc(S(=O)(=O)Nc2ccc(Cl)c3c(C#N)c[nH]c23)c1F [Compound 122, N-(4-chloro-3-cyano-1H-indol-7-yl)-5-fluoro-1-methyl-pyrazole-4-sulfonamide]
